Here are results for 17 compounds from US7026516B2 (priority 2000, dated 2006).

Read-outs that look alike come from different tables or passages of the source. Where only a bound is given, the exact number is not on record here.

Data set [1] has as its target T1, dopamine transporter (Macaca fascicularis, UniProt Q9GJT6).
T1 construct: Each caudate-putamen was homogenized and used separately for dopamine and serotonin transporter assays; from tissue; host or cells: caudate-putamen membranes of adult cynomolgus or rhesus monkey brain
The data set can be described thus: Inhibition of [3H]WIN 35,428 binding to the dopamine transporter in monkey caudate-putamen.

The target in data set [2] is T2, serotonin transporter (Macaca mulatta, UniProt Q9MYX0).
T2 construct: Each caudate-putamen was homogenized and used separately for dopamine and serotonin transporter assays; from tissue; host or cells: caudate-putamen membranes of adult cynomolgus or rhesus monkey brain
Briefly: biochemical. The class given is binding. As to the method: The affinities and transporter selectivities of the drugs were assessed in brain tissue of adult cynomolgus or rhesus monkey (Macaca fasicularis or Macaca Mulatta). Caudate-putamen was the source of the dopamine and serotonin transporters. The dopamine transporter affinity was measured with [3H]WIN 35,428 ([3H]CFT), the serotonin transporter was measured with [3H]citalopram and the norepinephrine transporter was measured with [3H]nisoxetine. Affinities of selected compounds were also measured at the human dopamine transporter in HEK-293 cells expressing the human dopamine transporter (hDAT).
Brain tissue was harvested from adult male and female cynomolgus (Macaca fasicularis) or rhesus (Macaca Mulatta) monkeys euthanized in the course of other research or after spontaneous death. Tissue was stored in the brain bank at the New England Regional Primate Research Center at −85° C. The caudate-putamen (approximately 1.5 g) was dissected from coronal sections of brain. Each caudate-putamen was homogenized and used separately for dopamine and serotonin transporter assays. Prior to homogenization, the thalamus from two brains was pooled and membranes were prepared as described previously for norepinephrine transporter assays (Madras et al., Synapse, 22:231–232, 1998; Madras et al., Synapse, 24:340–348, 1996). Briefly, the tissue was homogenized in 10 volumes (w/v) of ice-cold Tris.HCl buffer (50 mM, pH 7.4 at 0–4° C.) and centrifuged at 38,700×g for 20 min in the cold. The resulting pellet was resuspended in 40 volumes of buffer, and the entire wash procedure was repeated twice. The membrane suspension (25 mg original wet weight of tissue/ml) was diluted to 12 mg/ml in buffer just prior to assay and dispersed with a Brinkmanm polytron (setting #5) for 15 sec. […] All experiments were conducted in triplicate and each experiment was repeated in 2–4 individual tissue preparations.
The serotonin transporter was assayed in caudate-putamen membranes using similar assay conditions as for the dopamine transporter. […] The affinity of drugs for the serotonin transporter labeled by [^3H]citalopram (spec. act.: approximately 85 Ci/mmol, NEN) was determined in experiments by incubating tissue with a fixed concentration of [^3H]citalopram and a range of concentrations of drug. Assays were conducted in Tris-HCl buffer containing NaCl (100 mM) and the following constituents: [^3 H]citalopram (1 nM, 0.2 ml), test drug (1 pM–100 TM, 0.2 ml) and tissue (0.2 ml, 3 mg/ml original wet tissue weight). The 2 h incubation (0–4° C.) was initiated by addition of membranes and terminated by rapid filtration over Whatman GF/B glass fiber filters pre-soaked 1 hour in 0.1% polyethyleneimine. The filters were washed three times with 5 ml Tris.HCl buffer (50 mM), and the remaining steps were carried out as described above. Total binding was defined as [^3H]citalopram bound in the presence of ineffective concentrations of unlabeled citalopram (1 pM) or the test compounds. Non-specific binding was defined as [^3H]citalopram bound in the presence of an excess (10 TM) of fluoxetine. Specific binding was the difference between the two values. Cpm were converted to dpm following determination of counting efficiency (>45%) of each vial by external standardization.
Data were analyzed by the EBDA and LIGAND computer software programs (ElsevierBiosoft, U.K.) Final estimates of IC50 and nH values were computed by the EBDA program. Baseline values for the individual drugs were established by computer analysis, using the baseline drugs as a guide. The LIGAND program provided final parameter estimates for the affinity of the radioligand (Kd) by iterative non-linear curve-fitting and evaluation of one- or two-component binding models. LIGAND was used to measure the affinity of the radioligands at the dopamine and serotonin transporter. Graphs (not shown) were produced by the computer software program PRISM, using a one- or two-site competition analysis curve.

[3] abbreviates: Table 2, affinity at the dopamine transporter, read-out: DAT IC50.
Where [4] appears, read: Table 2, affinity at the serotonin transporter, read-out: SERT IC50.
The mark [5] stands for this setting: Table 1, [3H]WIN 35,428, monkey caudate-putamen, mean of 3 or more experiments, read-out: DAT IC50.
[6] abbreviates: Table 2, ratio of SERT and DAT IC50 values.
[7] abbreviates: read-out: IC50, binding potency at the DAT.
Setting [8] is: Table 1, [3H]citalopram, monkey caudate-putamen, mean of 3 or more experiments, read-out: SERT IC50.

T1 sequence (Q9GJT6 whole entry): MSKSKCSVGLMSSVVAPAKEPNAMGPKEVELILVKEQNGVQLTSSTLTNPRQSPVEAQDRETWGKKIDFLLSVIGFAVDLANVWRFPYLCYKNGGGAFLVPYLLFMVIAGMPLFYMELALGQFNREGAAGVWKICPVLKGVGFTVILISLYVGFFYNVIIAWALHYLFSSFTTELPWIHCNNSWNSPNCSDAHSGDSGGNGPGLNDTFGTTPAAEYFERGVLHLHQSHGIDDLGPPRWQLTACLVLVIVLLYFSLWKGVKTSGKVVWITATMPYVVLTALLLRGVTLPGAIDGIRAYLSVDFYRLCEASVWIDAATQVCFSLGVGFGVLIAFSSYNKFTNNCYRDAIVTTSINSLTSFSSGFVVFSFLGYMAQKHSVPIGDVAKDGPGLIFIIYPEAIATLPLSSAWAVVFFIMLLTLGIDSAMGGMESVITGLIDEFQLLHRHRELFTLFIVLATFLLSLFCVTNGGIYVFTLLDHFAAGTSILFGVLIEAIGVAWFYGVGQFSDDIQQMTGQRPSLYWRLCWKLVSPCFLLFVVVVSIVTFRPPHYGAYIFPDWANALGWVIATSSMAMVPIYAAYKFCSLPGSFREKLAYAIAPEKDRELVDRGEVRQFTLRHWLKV
T2 sequence (Q9MYX0 whole entry): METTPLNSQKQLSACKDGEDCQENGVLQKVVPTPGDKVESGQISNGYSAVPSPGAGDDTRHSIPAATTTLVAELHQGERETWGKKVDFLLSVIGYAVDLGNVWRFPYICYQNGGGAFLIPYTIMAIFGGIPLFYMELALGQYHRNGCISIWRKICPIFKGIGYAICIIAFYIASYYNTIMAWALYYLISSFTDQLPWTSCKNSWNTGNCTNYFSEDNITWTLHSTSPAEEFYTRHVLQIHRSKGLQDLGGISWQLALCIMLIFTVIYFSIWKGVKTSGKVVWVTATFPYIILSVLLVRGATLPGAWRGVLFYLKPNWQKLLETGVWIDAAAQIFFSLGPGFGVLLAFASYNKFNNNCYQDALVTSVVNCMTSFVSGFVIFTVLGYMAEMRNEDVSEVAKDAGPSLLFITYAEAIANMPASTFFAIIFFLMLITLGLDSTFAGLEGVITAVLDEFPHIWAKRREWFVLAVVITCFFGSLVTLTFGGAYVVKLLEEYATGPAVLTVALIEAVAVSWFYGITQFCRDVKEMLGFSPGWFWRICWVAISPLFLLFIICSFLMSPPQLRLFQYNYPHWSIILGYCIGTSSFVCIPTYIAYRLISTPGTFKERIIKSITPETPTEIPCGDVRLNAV

Regarding `COC(=O)C(c1ccccc1)C1CCCCN1` (centres unmarked) [Methylphenidate, reference compound], in data set [1], the “DAT/SERT RATIO” value is on record as 5,800 and the IC50 stood at 17.2 ± 2.04 nM. Besides, the IC50 in data set [2] is > 100 µM.

As to `COC(=O)C(c1ccc(Cl)c(Cl)c1)C1CCCCO1` (centres unmarked) [Compound 0-1731, 2-(3,4-Dichlorophenyl)tetrahydropyran-2-yl acetic acid methyl esters], the concentration for half-maximal inhibition (IC50) is 286 ± 10.5 nM in data set [1] (setting [3]) and 7.79 µM in data set [2] (setting [4]).

As for `N#CC(c1ccc(Cl)c(Cl)c1)C1CCCC1` (stereo not drawn) [Compound 10, α-cyclopentyl-3,4-dichlorobenzylcyanide], the 50% inhibitory concentration (IC50) in data set [1] (setting [5]) and in data set [1] (setting [3]) was 128 nM each time. Further, in data set [1] (setting [6]), the “DAT/SERT RATIO” value is on record as 78.

`COC(=O)C(c1ccc2ccccc2c1)C1CCCCO1` (centres unmarked) [Naphthyl mixture, (2-Naphthyl)-(tetrahydropyran-2-yl) acetic acid methyl esters]: the concentration for half-maximal inhibition (IC50) in data set [1] (setting [5]) came to 300 nM; in data set [1] (setting [3]), 300 nM; in data set [1] (binding to the DAT, read-out: DAT IC50), 300 nM; in data set [1] (setting [7]), 300 nM; in data set [2] (setting [8]) it was 5 µM; in data set [2] (setting [4]), 5 µM. For the same compound, the IC50 in data set [2] (binding to the SERT, read-out: SERT IC50) was 5 µM. Besides, the “DAT/SERT RATIO” value in data set [1] (setting [6]) is on record as 16.7.

As for `COC(=O)[C@@H](c1ccc(Cl)c(Cl)c1)[C@@H]1CCCCO1` [Compound O-1794, 2S-(3,4-Dichlorophenyl)tetrahydropyran-2′S-yl acetic acid methyl ester], the figures for the half-maximal inhibitory concentration (IC50) in data set [1] and in data set [2] (setting [8]) were 33.9 ± 8.6 nM and 1.66 µM, respectively.

As for `CO[C@@H]1C[C@H](c2ccc3ccccc3c2)c2ccccc21` (relative stereo) [Compound 0-1833, Cis-3-(2-Naphthyl)-0-methylindanol], the values for the IC50 in data set [1] (setting [3]) and in data set [2] (setting [4]) were 189 ± 12 nM and 0.422 ± 0.038 µM, respectively. In addition, the “DAT/SERT RATIO” value in data set [1] (setting [6]) is 2.

With `COC(=O)[C@H](c1ccc(Cl)c(Cl)c1)[C@H]1CCCCO1` [Compound O-1783], the IC50 in data set [1] was 17 ± 1.3 nM; in data set [2] (setting [8]), > 10 µM; in data set [2] (setting [4]), > 10 µM.

In the case of `CO[C@@H]1C[C@H](c2ccc(Cl)c(Cl)c2)c2ccccc21` (relative stereo) [Compound 0-1617, Cis-1-Methoxy-3-(3,4-dichlorophenyl)indans], the half-inhibitory concentration (IC50) is 130 ± 49.7 nM in data set [1] (setting [3]) and > 4.1 µM in data set [2] (setting [4]). Besides, the “DAT/SERT RATIO” value in data set [1] (setting [6]) was >32.

For the compound `CO[C@@H]1C[C@@H](c2ccc(Cl)c(Cl)c2)c2ccccc21` (relative stereo) [Compound 0-1630, Trans-1-Methoxy-3-(3,4-dichlorophenyl)indans], the concentration for half-maximal inhibition (IC50) in data set [1] (setting [3]) came out at 60 ± 23 nM; in data set [2] (setting [4]) it was 0.334 ± 0.1 µM. The “DAT/SERT RATIO” value in data set [1] (setting [6]) was found to be 6.

Consider `O=C(O)[C@H](c1ccc(Cl)c(Cl)c1)C1CCCCO1` (some centres unmarked), for which the melting point was in the range of 124.1 to 125.1 °C.

In the case of `COC(=O)C(c1ccc(Cl)c(Cl)c1)C1CCCCO1` (centres unmarked) [Compound 0-1730, 2-(3,4-Dichlorophenyl)tetrahydropyran-2-yl acetic acid methyl esters], the IC50 in data set [2] (setting [4]) stood at 2.18 µM.

Consider `CO[C@@H]1C[C@@H](c2ccc3ccccc3c2)c2ccccc21` (relative stereo) [Compound 0-1925, Trans-1-Methoxy-3-(2-naphthyl)indans], for which the figures for the half-maximal inhibitory concentration (IC50) in data set [1] (setting [3]) and in data set [2] (setting [4]) were 213 ± 27 nM and 0.136 ± 0.0045 µM, respectively. In data set [1] (setting [6]), the “DAT/SERT RATIO” value was determined as 0.6.

In turn, `O=C(O)C(c1ccc(Cl)c(Cl)c1)C1CCCCO1` (centres unmarked) came in with a melting point of 138.9 to 139.9 °C.

Regarding `N#CC(c1ccc(Cl)c(Cl)c1)C1CCCCC1` (stereo not drawn) [Compound 8, α-cyclohexyl-3,4-dichlorobenzylcyanide], the IC50 is 127 nM in data set [1] (setting [3]); 127 to 146 nM in data set [1] (setting [7]); 8 µM in data set [2] (setting [8]); 8 µM in data set [2] (setting [4]); 8 to 12 µM in data set [2] (read-out: IC50, binding potency at the SERT). Besides, the “DAT/SERT RATIO” value in data set [1] (setting [6]) is 63.

Compound `O=C(O)[C@H](c1ccc(Cl)c(Cl)c1)[C@H]1CCCCO1` registered a melting point of 139.1 to 140.1 °C.

On to `COC(=O)[C@@H](c1ccc(Cl)c(Cl)c1)[C@H]1CCCCO1` [Compound O-1793, 2S-(3,4-Dichlorophenyl)tetrahydropyran-2′R-yl acetic acid methyl ester], for which the IC50 in data set [2] (setting [8]) and in data set [2] (setting [4]) was > 10 µM throughout.

For the compound `COC(=O)[C@H](c1ccc(Cl)c(Cl)c1)[C@@H]1CCCCO1` [Compound O-1792, 2R-(3,4-Dichlorophenyl)tetrahydropyran-2′S-yl acetic acid methyl ester], the half-maximal inhibitory concentration (IC50) in data set [2] (setting [8]) and in data set [2] (setting [4]) was > 10 µM throughout.

The term IC50 denotes the concentration that inhibits the measured activity by half. As usually defined, the melting point is the temperature, or range, at which the solid turns liquid.
